# “Also recorded” adds a separate entry of the source.
# What was measured:
# α-glucosidase [1] = test: α-glucosidase enzyme kinetic study (Lineweaver–Burk and secondary plots); type: biochemical; conditions: for mode of enzyme inhibition: Lineweaver–Burk plot
# Method: The enzyme kinetics parameters (Km and Vmax) were determined by analyzing the double reciprocal Lineweaver–Burk plot (1/V vs. 1/[S]). Each experiment was carried out by varying the concentration of pNPG (2.0, 1.0, 0.5, and 0.25 mM) in the absence and presence of different concentrations of the test sample. The reaction was monitored at 405 nm by a microplate reader every 5 min for a total time of 25 min. Each experiment was performed in triplicate. […] For compound 3, secondary plots were plots of the inverted values of Km (1/Km) as a function of inhibitor concentration. The inhibition constant (Ki) was then calculated from the intersection point.
# α-glucosidase [2] = test: α-glucosidase inhibitory assay (pNPG, absorbance at 405 nm); type: biochemical; conditions: for α-glucosidase inhibitory activity compared with acarbose: comparison with the drug acarbose; for IC50: pNPG substrate, 37 °C, mean ± SD, triplicate
# Method: The α-glucosidase enzyme inhibition assay was carried out according to the method in our previous report. The inhibitory activity was determined by measuring the p-nitrophenol, a yellow color substance that can be monitored at 405 nm, released from p-nitrophenyl-α-D-glucopyranoside (pNPG) by the α-glucosidase enzyme. The test samples were initially dissolved in 50% DMSO, and then, 10 µL of the sample solution and 40 µL of 0.1 unit/mL α-glucosidase were incubated at 37 °C for 10 min. After that, to start the reaction, 50 µL of 2 mM pNPG was added to the mixture and incubated at 37 °C for 20 min. One hundred microliters of 1 M Na2CO3 was added to stop the reaction, and then, the absorbance was measured at 405 nm. […] Each experiment was performed in triplicate.
SMILES,α-glucosidase inhibitory activity compared with acarbose (α-glucosidase [2]),IC50 (α-glucosidase [2]) [µM],also measured
"C[C@H]1O[C@H](O[C@H]2[C@H](O)[C@@H](O)[C@@H](O[C@H]3[C@H](O)[C@@H](O)C(O)O[C@@H]3CO)O[C@@H]2CO)[C@H](O)[C@@H](O)[C@@H]1N[C@H]1C=C(CO)[C@@H](O)[C@H](O)[C@H]1O (some centres unmarked) [Acarbose, acarbose, reference compound]",–,–,mode of enzyme inhibition (α-glucosidase [1]): competitive inhibition; Vmax (α-glucosidase [1]; inhibitor dose 387 µM): 0.1 ∆ A405/min; Vmax (α-glucosidase [1]; inhibitor dose 744 µM): 0.1 ∆ A405/min
"COc1c(O)cc2c3c1COc1c(Cc4ccc(O)cc4)c(O)cc(c1-3)CC2 [Compound 1, gastrobellinol A]",higher activity than the drug acarbose; also recorded: higher α-glucosidase inhibitory activity than acarbose,88.7 ± 4.1,–
"COc1cc2c3c(ccc4cc(O)c(OC)c(c43)CO2)c1Cc1ccc(O)cc1 [Compound 2, gastrobellinol B]",higher activity than the drug acarbose; also recorded: higher α-glucosidase inhibitory activity than acarbose,97.8 ± 3.1,–
"COc1c(O)cc2ccc3c(Cc4ccc(O)cc4)c(O)cc4c3c2c1CO4 [Compound 3, gastrobellinol C]",higher activity than the drug acarbose; also recorded: higher α-glucosidase inhibitory activity than acarbose,45.9 ± 2.8,"mode of enzyme inhibition (α-glucosidase [1]): competitive inhibition; also recorded: competitive inhibitor; Ki (α-glucosidase [1]; from secondary plot): 87.3 µM; Vmax (α-glucosidase [1]; inhibitor dose 20 µM, pNPG 0.25–2.0 mM): 0.1 ∆ A405/min; Vmax (α-glucosidase [1]; inhibitor dose 40 µM, pNPG 0.25–2.0 mM): 0.1 ∆ A405/min; maximum velocity (Vmax) (α-glucosidase [1]; unchanged at 20 µM and 40 µM compound 3): 0.1 A405/min"
"COc1cc(/C=C/C=O)ccc1O [Compound 7, coniferyl aldehyde]",higher activity than the drug acarbose; also recorded: higher α-glucosidase inhibitory activity than acarbose,381 ± 9.3,–
"O=Cc1ccc(O)cc1 [Compound 8, 4-hydroxybenzaldehyde]",higher α-glucosidase inhibitory activity than acarbose,–,–
"COc1cc2ccc3cc(O)c(OC)c4c(=O)oc(c1)c2c34 [Compound 9, agrostophyllone]",higher activity than the drug acarbose,281 ± 15.9,–
"COc1c(O)cc2c3c1COc1cc(O)c(Cc4ccc(O)cc4)c(c1-3)CC2 [Compound 13, 1-(4′-hydroxybenzyl)-imbricartin]",higher activity than the drug acarbose; also recorded: higher α-glucosidase inhibitory activity than acarbose,53.7 ± 12.5,–
"COc1c(O)cc2c3c1COc1cc(O)cc(c1-3)CC2 [Compound 15, imbricatin]",higher activity than the drug acarbose; also recorded: higher α-glucosidase inhibitory activity than acarbose,301 ± 6.6,–

# From paper PMC7830893, “Four Novel Phenanthrene Derivatives with α-Glucosidase Inhibitory Activity from Gastrochilus bellinus” (Molecules, 2021)
